{"source": "patent US20210361688A1", "about": "(priority 2020, published 2021)", "key": {"[1]": {"assay": "Estimated ivermectin concentration delivered into the respiratory pathways per nebulization", "parameters": "species or system human", "conditions": "about 10% of nebulized solution reaches the respiratory pathways; approx. 3 mg into 150 cc dead space", "procedure": "3 mL of the solution was administered to the subject directly into the lungs in the form of an inhalable mist."}, "[2]": {"system": "SARS-CoV-2 isolate Australia/VIC01/2020", "conditions": "cited from earlier work"}, "[3]": {"conditions": "cited from earlier work"}, "[4]": {"system": "pseudorabies virus (PRV)", "conditions": "mouse, in vivo; cited from earlier work"}, "[5]": {"conditions": "ivermectin 5 μM from 2 hours post-infection, 24 h, Vero-hSLAM cells"}}}
{"substance": "ivermectin", "values": [{"measurement": "ivermectin delivered per cc of dead space per nebulization", "setting": "[1]", "value": "approximately 0.02 mg per cc"}, {"measurement": "IC50 concentration necessary to inhibit viral replication", "setting": "[2]; as quoted in Example 2", "value": 0.00175, "unit": "mg/cc"}, {"measurement": "reduction in viral RNA versus DMSO control, cell associated viral RNA (total virus)", "setting": "[2]; [5]", "value": 99.8, "unit": "%"}, {"measurement": "reduction in viral RNA versus DMSO control, supernatant (released virions)", "setting": "[2]; [5]", "value": 93, "unit": "%"}, {"measurement": "fold reduction of viral RNA", "setting": "[2]; ivermectin 5 μM, by hour 48, effect maintained at 72 hours", "value": 5000, "unit": "fold"}, {"measurement": "IC50", "setting": "[2]; serial dilutions of ivermectin, Vero-hSLAM cells, read-out: IC50 against SARS-CoV-2", "value": "~2000", "unit": "nM"}, {"measurement": "tolerability of high doses", "setting": "[3]; adults or children", "value": "well tolerated"}, {"measurement": "maximum plasma concentration", "setting": "[3]; humans, highest reported dose of approximately 1700 μg/kg", "value": 0.28, "unit": "µM"}, {"measurement": "survival in PRV-infected mice", "setting": "[4]", "value": "increase survival"}]}
